The text below walks through data of publication PMC11671014 (PLOS Pathogens, 2024).

The subject of series [1] is P. falciparum (3D7, ring stage) cultures. Conditions: read-out: P. falciparum 72-h IC50 (3D7); 3D7, 72 h exposure; ref [16]; cited from earlier work.
For series [2], the target named is T1, PfTyrRS (Plasmodium falciparum, UniProt Q8IAR7). The series is described as follows: ATP consumption by PfTyrRS (Kinase Glo). In kind it is biochemical. Conditions: Inhibition of PfTyrRS (Kinase Glo) IC50, PfTyrRS 25 nM, ATP 10 μM, tyrosine 200 μM, cognate tRNA^Tyr 4.8 μM, 37°C 1 h. The protocol: Consumption of ATP was measured using a luciferase-based assay as per the manufacturer’s instructions (Kinase-Glo Luminescent Kinase Assay, Promega).
On the technique in general: Kinase-Glo measures the ATP left after a reaction by luminescence.

A further series concerns HCT116. Conditions: read-out: HCT116 IC50_72h; 72 h; ref [16]; cited from earlier work.
Series [3] deals with T1, PfTyrRS. As to the kind of experiment: Differential scanning fluorimetry (DSF) of PfTyrRS. In kind it is binding. The protocol:
The effect on ML471 and analogues on the thermal stability of TyrRS enzymes was assayed as previously described. […] SYPRO Orange (Sigma-Aldrich; 5,000X concentrate in DMSO) was added to the reaction mixture at a final concentration of 5X. 25 μL of the sample was added into each well of a 96-well qPCR plate (Applied Biosystems). The plate was sealed and analysed using StepOnePlus Real-Time PCR system (Applied Biosystems). The samples were heated from 20°C to 90°C with a 1% continuous gradient. The thermal unfolding curve was plotted as the first derivative curve of the raw fluorescence values. The melting temperature (Tm), defined as the peak of the first derivative curve, was used to assess the thermal stability of protein-ligand complexes.
Background: Differential scanning fluorimetry follows unfolding on heating by fluorescence.

Series [4] deals with the molecule itself. As to the kind of experiment: crystal structure; PfTyrRS (10 mg/mL) with 500 uM synthetic Tyr-ML471; sitting drop vapour diffusion at 20°C, 2.25 M sodium malonate pH 6; refined at 1.8 Å.

Several values for one entry are separate records, joined by “and”; a condition that tells them apart may be missing. Identical values can stand only once.

For `Nc1ncnc2c1ncn2[C@@H]1O[C@H](COS(N)(=O)=O)[C@@H](O)[C@H]1O` [AMS, adenosine 5’-monosulfamate, reference compound], the IC50 is 1.8 ± 0.6 nM in series [1]; 51700 nM and 52000 nM against PfTyrRS [2]; 26 nM in the series on HCT116. The molecule also gave a Kd at PfTyrRS [3] of 1.3 nM. Moreover, the ΔTm at 50 µM on PfTyrRS [3] (2 h, read-out: PfTyrRS binding (DSF) Delta Tm) came out at 13.6 ± 0.7 °C. In addition, at PfTyrRS [3] (with sulfamate, ATP, tyrosine and tRNA, apo 49.9 ± 0.6), the “PfTyrRS Tm” value came out at 63.5 ± 0.7 °C.

B1: Plasmodium falciparum cytoplasmic tyrosine tRNA synthetase (enzyme, P. falciparum)
chain: METTDTKREEQEIEEKKAQEESKIEDVDKILNDILSISSECIQPDELRVKLLLKRKLICYDGFEPSGRMHIAQGLLKSIIVNKLTSNGCTFIFWIADWFAHLNNKMSGDLKKIKKVGSYFIEVWKSCGMNMENVQFLWASEEINKKPNEYWSLVLDISRSFNINRMKRCLKIMGRSEGEENYCSQILYPCMQCADIFFLNVDICQLGIDQRKVNMLAREYCDIKKIKKKPVILSHGMLPGLLEGQEKMSKSDENSAIFMDDSESDVNRKIKKAYCPPNVIENNPIYAYAKSIIFPSYNEFNLVRKEKNGGDKTYYTLQELEHDYVNGFIHPLDLKDNVAMYINKLLQPVRDHFQNNIEAKNLLNEIKKYKVTK
notes: Plasmodium falciparum cytoplasmic tyrosine tRNA synthetase; also called PfTyrRS; His-PfTyrRS; source: E. coli BL21(DE3), purified (HisTrap HP, TEV cleavage, second HisTrap HP, Superdex 200 gel filtration)
For the molecule B1, the “stoichiometry N” value in series [4] worked out at 2.

As usually defined, the Kd is the equilibrium constant for the complex coming apart. In general, stoichiometry N refers to a count of units in the complex or per binding partner.
